# Results from US10758534B2 (Vertex Pharmaceuticals Incorporated, priority 2014, dated 2020).
# Target: T1, F508del (Homo sapiens, UniProt P13569, DEL508-508)
# T1 construct: expressed in transfected cells
# Assay: Protocol 2: FRET membrane potential optical assay (VIPR), identification of correction compounds
# Format: cell-based
# Conditions: F508del CFTR modulator activity; compounds of Table 1; read-out: EC30
# Procedure, shortened: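 Mouse NIH3T3 cells, stable F508del; cpd 16 hrs, 37° C., serum-free; pos ctrl 27° C. 16 hrs. Rinse in Krebs Ringers, dye load, then add 10 μM forskolin + 20 μM genistein with Cl^−-free (gluconate) medium; depolarization by FRET voltage dyes.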
# T1 sequence (P13569 with tags, fused parts or gaps DEL508-508): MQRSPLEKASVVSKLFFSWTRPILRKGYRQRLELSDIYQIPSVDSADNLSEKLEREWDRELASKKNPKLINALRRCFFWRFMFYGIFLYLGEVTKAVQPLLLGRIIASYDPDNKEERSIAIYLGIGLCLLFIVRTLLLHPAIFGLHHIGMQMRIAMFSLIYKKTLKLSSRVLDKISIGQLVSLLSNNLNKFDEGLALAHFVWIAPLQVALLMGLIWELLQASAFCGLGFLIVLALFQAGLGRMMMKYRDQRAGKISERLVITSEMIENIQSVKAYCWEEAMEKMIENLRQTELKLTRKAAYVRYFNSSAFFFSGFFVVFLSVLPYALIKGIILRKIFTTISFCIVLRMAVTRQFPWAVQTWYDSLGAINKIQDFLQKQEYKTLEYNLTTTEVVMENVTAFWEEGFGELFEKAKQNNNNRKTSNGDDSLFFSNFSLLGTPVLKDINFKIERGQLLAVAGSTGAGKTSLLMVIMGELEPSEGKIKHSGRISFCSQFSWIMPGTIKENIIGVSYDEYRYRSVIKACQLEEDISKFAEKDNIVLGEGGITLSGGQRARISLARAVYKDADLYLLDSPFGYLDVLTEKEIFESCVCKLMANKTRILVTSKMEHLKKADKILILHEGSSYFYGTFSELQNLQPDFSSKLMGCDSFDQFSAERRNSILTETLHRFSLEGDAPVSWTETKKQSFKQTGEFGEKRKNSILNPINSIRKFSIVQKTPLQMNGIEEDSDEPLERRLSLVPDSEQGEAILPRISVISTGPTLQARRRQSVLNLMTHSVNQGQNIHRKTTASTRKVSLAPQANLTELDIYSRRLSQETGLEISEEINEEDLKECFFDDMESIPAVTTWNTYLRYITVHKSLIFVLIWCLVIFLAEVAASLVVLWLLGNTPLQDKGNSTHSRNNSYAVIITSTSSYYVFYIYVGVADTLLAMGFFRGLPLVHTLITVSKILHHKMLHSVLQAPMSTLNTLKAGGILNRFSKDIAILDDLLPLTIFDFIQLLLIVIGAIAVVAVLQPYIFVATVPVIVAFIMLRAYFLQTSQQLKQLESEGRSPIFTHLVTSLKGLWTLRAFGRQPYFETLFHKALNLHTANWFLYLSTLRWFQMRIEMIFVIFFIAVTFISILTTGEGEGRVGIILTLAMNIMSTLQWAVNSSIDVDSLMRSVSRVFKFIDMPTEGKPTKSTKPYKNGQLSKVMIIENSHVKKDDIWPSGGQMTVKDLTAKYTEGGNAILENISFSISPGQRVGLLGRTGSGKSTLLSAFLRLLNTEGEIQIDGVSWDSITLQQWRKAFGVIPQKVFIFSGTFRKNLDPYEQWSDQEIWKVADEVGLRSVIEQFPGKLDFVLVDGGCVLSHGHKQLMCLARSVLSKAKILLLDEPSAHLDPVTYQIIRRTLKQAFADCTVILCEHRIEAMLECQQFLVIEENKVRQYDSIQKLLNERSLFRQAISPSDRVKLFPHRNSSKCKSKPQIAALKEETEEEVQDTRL
row,EC30 [µM],Structure (SMILES)
1,< 3,"CC1CN(c2ncccc2C(=O)NS(=O)(=O)c2cccc(N[C@H](C)C3CCCCC3)n2)C(C)(C)C1 (stereo partly drawn) [Compound 1996, N—[[6-[[(1R)-1-cyclohexylethyl]amino]-2-pyridyl]sulfonyl]-2-(2,2,4-trimethylpyrrolidin-1-yl)pyridine-3-carboxamide]"
2,3 to 10,"C[C@@H]1CN(c2nc(-c3cccc(CO)c3)ccc2C(=O)NS(=O)(=O)c2ccc[nH]c2=O)C(C)(C)C1 [Compound 1997, 6-[3-(hydroxymethyl)phenyl]-N-[(2-oxo-1H-pyridin-3-yl)sulfonyl]-2-[(4S)-2,2,4-trimethylpyrrolidin-1-yl]pyridine-3-carboxamide]"
3,< 3,"COc1cc(-c2ccc(C(=O)NS(=O)(=O)c3cccnc3N)c(N3C[C@@H](C)CC3(C)C)n2)cc(F)c1F [Compound 1998, N-[(2-amino-3-pyridyl)sulfonyl]-6-(3,4-difluoro-5-methoxy-phenyl)-2-[(4S)-2,2,4-trimethylpyrrolidin-1-yl]pyridine-3-carboxamide]"
4,3 to 10,"Cc1cc(O)ccc1-c1ccc(C(=O)NS(=O)(=O)c2cccnc2N)c(N2C[C@@H](C)CC2(C)C)n1 [Compound 1999, N-[(2-amino-3-pyridyl)sulfonyl]-6-(4-hydroxy-2-methyl-phenyl)-2-[(4S)-2,2,4-trimethylpyrrolidin-1-yl]pyridine-3-carboxamide]"
5,< 3,"Cc1ccc(-c2ccc(C(=O)NS(=O)(=O)c3ccc[nH]c3=O)c(N3C[C@@H](C)CC3(C)C)n2)c(F)c1 [Compound 2000, 6-(2-fluoro-4-methyl-phenyl)-N-[(2-oxo-1H-pyridin-3-yl)sulfonyl]-2-[(4S)-2,2,4-trimethylpyrrolidin-1-yl]pyridine-3-carboxamide]"

# Same assay, conditions: Table 3; compounds of Table 1 as modulators of CFTR activity; protocol not stated
row,Structure (SMILES),EC30
1,"CC(C)COc1cc(F)cc(-c2ccc(C(=O)NS(=O)(=O)c3cccc(N)n3)c(N3CCCC3Cc3ccccc3)n2)c1 (centres unmarked) [Compound 772, N-[(6-amino-2-pyridyl)sulfonyl]-2-(2-benzylpyrrolidin-1-yl)-6-(3-fluoro-5-isobutoxy-phenyl)pyridine-3-carboxamide]",+++ (“+++” means <3 uM)
2,"COC1(C)CCN(c2nc(-c3cc(F)cc(OCC(C)C)c3)ccc2C(=O)NS(=O)(=O)c2ccn[nH]2)CC1 [Compound 774, 6-(3-fluoro-5-isobutoxy-phenyl)-2-(4-methoxy-4-methyl-1-piperidyl)-N-(1H-pyrazol-5-ylsulfonyl)pyridine-3-carboxamide]",+++ (“+++” means <3 uM)
3,"CC(C)COc1cc(F)cc(-c2ccc(C(=O)NS(=O)(=O)c3cccc(=O)[nH]3)c(N3CCC(C)(C)CC3)n2)c1 [Compound 775, 2-(4,4-dimethyl-1-piperidyl)-6-(3-fluoro-5-isobutoxy-phenyl)-N-[(6-oxo-1H-pyridin-2-yl)sulfonyl]pyridine-3-carboxamide]",+++ (“+++” means <3 uM)
4,"CC(C)Oc1ccc(-c2ccc(C(=O)NS(=O)(=O)c3ccn[nH]3)c(N3CCC[C@@H](c4ccccc4)C3)n2)cn1 [Compound 776, 6-(6-isopropoxy-3-pyridyl)-2-[(3S)-3-phenyl-1-piperidyl]-N-(1H-pyrazol-5-ylsulfonyl)pyridine-3-carboxamide]",+++ (“+++” means <3 uM)
5,"CC(C)COc1cccc(-c2ccc(C(=O)NS(=O)(=O)c3cccc(N)n3)c(N3CCC(C)CC3)n2)c1 [Compound 777, N-[(6-amino-2-pyridyl)sulfonyl]-6-(3-isobutoxyphenyl)-2-(4-methyl-1-piperidyl)pyridine-3-carboxamide]",+++ (“+++” means <3 uM)
6,"Cc1ccccc1Oc1nc(-c2cc(F)cc(OCC(C)C)c2)ccc1C(=O)NS(=O)(=O)c1cccc(N)n1 [Compound 778, N-[(6-amino-2-pyridyl)sulfonyl]-6-(3-fluoro-5-isobutoxy-phenyl)-2-(2-methylphenoxy)pyridine-3-carboxamide]",+++ (“+++” means <3 uM)
7,"CC1CN(c2nc(-c3cncc(OCC(C)(C)C)n3)ccc2C(=O)NS(=O)(=O)c2cccc(N)n2)C(C)(C)C1 (centres unmarked) [Compound 779, N-[(6-amino-2-pyridyl)sulfonyl]-6-[6-(2,2-dimethylpropoxy)pyrazin-2-yl]-2-(2,2,4-trimethylpyrrolidin-1-yl)pyridine-3-carboxamide]",+++ (“+++” means <3 uM)
8,"CC(C)COc1cc(F)cc(-c2ccc(C(=O)NS(=O)(=O)c3cccc(N)n3)c(N3CCC(C(F)(F)F)C3(C)C)n2)c1 (centres unmarked) [Compound 780, N-[(6-amino-2-pyridyl)sulfonyl]-2-[2,2-dimethyl-3-(trifluoromethyl)pyrrolidin-1-yl]-6-(3-fluoro-5-isobutoxy-phenyl)pyridine-3-carboxamide]",+++ (“+++” means <3 uM)
9,"COc1cccc(-c2ccc(C(=O)NS(=O)(=O)c3ccc[nH]c3=O)c(N3[C@H](C)CC[C@@H]3C)n2)n1 [Compound 781, 2-[(2S,5R)-2,5-dimethylpyrrolidin-1-yl]-6-(6-methoxy-2-pyridyl)-N-[(2-oxo-1H-pyridin-3-yl)sulfonyl]pyridine-3-carboxamide]",+ (“+” means greater than 10 uM)
10,"Cc1ccccc1C(C)Oc1nc(-c2cc(F)cc(OCC(C)C)c2)ccc1C(=O)NS(=O)(=O)c1cccc(N)n1 (centres unmarked) [Compound 782, N-[(6-amino-2-pyridyl)sulfonyl]-6-(3-fluoro-5-isobutoxy-phenyl)-2-[1-(o-tolyl)ethoxy]pyridine-3-carboxamide]",+++ (“+++” means <3 uM)
11,"CC1CCN(c2nc(C(C)(C)C)ccc2C(=O)NS(=O)(=O)c2cccc(N)n2)CC1 [Compound 794, N-[(6-amino-2-pyridyl)sulfonyl]-6-tert-butyl-2-(4-methyl-1-piperidyl)pyridine-3-carboxamide]",+++ (“+++” means <3 uM)

# Other lines, results leading:
row,EC30,Structure (SMILES)
1,+++ (“+++” means <3 uM),"CCCOc1cc(-c2ccc(C(=O)NS(=O)(=O)c3cccc(N)n3)c(N3[C@H](C)CC[C@@H]3C)n2)ccc1Cl [Compound 773, N-[(6-amino-2-pyridyl)sulfonyl]-6-(4-chloro-3-propoxy-phenyl)-2-[(2R,5S)-2,5-dimethylpyrrolidin-1-yl]pyridine-3-carboxamide]"
2,+++ (“+++” means <3 uM),"Cc1cc(C)c(Oc2nc(C3CCC(F)(F)CC3)ccc2C(=O)NS(=O)(=O)c2cccc(N)n2)c(C)c1 [Compound 783, N-[(6-amino-2-pyridyl)sulfonyl]-6-(4,4-difluorocyclohexyl)-2-(2,4,6-trimethylphenoxy)pyridine-3-carboxamide]"
3,+++ (“+++” means <3 uM),"Cc1cc(C)c(Oc2nc(-c3ccccc3)ccc2C(=O)NS(=O)(=O)c2ccn[nH]2)c(C)c1 [Compound 784, 6-phenyl-N-(1H-pyrazol-5-ylsulfonyl)-2-(2,4,6-trimethylphenoxy)pyridine-3-carboxamide]"
4,+++ (“+++” means <3 uM),"Cc1cc(C)c(Oc2nc(N3CCCCC3)ccc2C(=O)NS(=O)(=O)c2cccc(N)n2)c(C)c1 [Compound 785, N-[(6-amino-2-pyridyl)sulfonyl]-6-(1-piperidyl)-2-(2,4,6-trimethylphenoxy)pyridine-3-carboxamide]"
5,+ (“+” means greater than 10 uM),"Cc1cc(C)c(Oc2nc(-c3cccc(CO)c3)ccc2C(=O)NS(=O)(=O)c2cccc(N)n2)c(C)c1 [Compound 786, N-[(6-amino-2-pyridyl)sulfonyl]-6-[3-(hydroxymethyl)phenyl]-2-(2,4,6-trimethylphenoxy)pyridine-3-carboxamide]"
6,+++ (“+++” means <3 uM),"Cc1cc(C)c(Oc2nc(-c3ccc(N(C)C)nc3)ccc2C(=O)NS(=O)(=O)c2cccc(N)n2)c(C)c1 [Compound 787, N-[(6-amino-2-pyridyl)sulfonyl]-6-[6-(dimethylamino)-3-pyridyl]-2-(2,4,6-trimethylphenoxy)pyridine-3-carboxamide]"
7,+++ (“+++” means <3 uM),"CC(C)Oc1cc(-c2ccc(C(=O)NS(=O)(=O)c3cccc(N)n3)c(N3[C@H](C)CC[C@@H]3C)n2)ccc1Cl [Compound 788, N-[(6-amino-2-pyridyl)sulfonyl]-6-(4-chloro-3-isopropoxy-phenyl)-2-[(2S,5R)-2,5-dimethylpyrrolidin-1-yl]pyridine-3-carboxamide]"
8,+++ (“+++” means <3 uM),"C[C@@H]1CC[C@H](C)N1c1nc(-c2ccc(OCC3CC3)nc2)ccc1C(=O)NS(=O)(=O)c1cccc(N)n1 [Compound 789, N-[(6-amino-2-pyridyl)sulfonyl]-6-[6-(cyclopropylmethoxy)-3-pyridyl]-2-[(2S,5R)-2,5-dimethylpyrrolidin-1-yl]pyridine-3-carboxamide]"
9,+++ (“+++” means <3 uM),"Cc1cccc(C)c1CN1Cc2ccccc2C1(C)C(=O)NS(=O)(=O)c1cccc(N)n1 (centres unmarked) [Compound 790, N-[(6-amino-2-pyridyl)sulfonyl]-2-[(2,6-dimethylphenyl)methyl]-1-methyl-isoindoline-1-carboxamide]"
10,++ (“++” means between 3 uM and 10 uM),"COCCCc1ccc(C(=O)NS(=O)(=O)c2cccc(N)n2)c(Oc2c(C)cc(C)cc2C)n1 [Compound 791, N-[(6-amino-2-pyridyl)sulfonyl]-6-(3-methoxypropyl)-2-(2,4,6-trimethylphenoxy)pyridine-3-carboxamide]"
11,++ (“++” means between 3 uM and 10 uM),"Cc1cc(C)c(Oc2nc(C)ccc2C(=O)NS(=O)(=O)c2cccc(NCCN)n2)c(C)c1 [Compound 792, N-[[6-(2-aminoethylamino)-2-pyridyl]sulfonyl]-6-methyl-2-(2,4,6-trimethylphenoxy)pyridine-3-carboxamide]"
12,+++ (“+++” means <3 uM),"Cc1cc(C)c(Oc2nc(-c3ccc(C)c(O)c3)ccc2C(=O)NS(=O)(=O)c2cccc(N)n2)c(C)c1 [Compound 793, N-[(6-amino-2-pyridyl)sulfonyl]-6-(3-hydroxy-4-methyl-phenyl)-2-(2,4,6-trimethylphenoxy)pyridine-3-carboxamide]"
13,+++ (“+++” means <3 uM),COc1cccc(S(=O)(=O)NC(=O)c2ccc(-c3cc(F)cc(OCC(C)C)c3)nc2N2CC(C)CC2(C)C)n1 (centres unmarked) [Compound 795]
